Values quoted from earlier work as cited in EP0454783B1, “SITE SPECIFIC IN-VIVO ACTIVATION OF THERAPEUTIC DRUGS” (Akzo Nobel N.V., priority 1989, dated 1990).

Biological target: lysozyme (Gallus gallus, UniProt P00698)
Details: Imoto et al, 1972

Chain of lysozyme (P00698 19-147): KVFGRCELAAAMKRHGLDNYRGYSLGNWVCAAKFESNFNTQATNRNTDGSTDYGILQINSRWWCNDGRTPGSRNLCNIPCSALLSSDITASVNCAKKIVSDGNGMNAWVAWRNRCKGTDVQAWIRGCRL

fold higher rate of cleavage by lysozyme than chitotriose: 30,000 fold
Structure (SMILES): CC(=O)N[C@H]1[C@H](O[C@H]2[C@H](O)[C@@H](NC(C)=O)[C@H](O[C@H]3[C@H](O)[C@@H](NC(C)=O)C(O)O[C@@H]3CO)O[C@@H]2CO)O[C@H](CO)[C@@H](O[C@@H]2O[C@H](CO)[C@@H](O[C@@H]3O[C@H](CO)[C@@H](O[C@@H]4O[C@H](CO)[C@@H](O)[C@H](O)[C@H]4NC(C)=O)[C@H](O)[C@H]3NC(C)=O)[C@H](O)[C@H]2NC(C)=O)[C@@H]1O (stereo partly shown) [chitohexaose]
